Test results from ChEMBL document CHEMBL5104095, “Proteolysis targeting chimera (PROTAC) in drug discovery paradigm: Recent progress and future challenges” (Eur J Med Chem, 2021).
pEC50, pIC50, pKd: −log10 of the molar value.

Assays:
[1] = biological target: von Hippel-Lindau disease tumor suppressor/Barrier-to-autointegration factor (Homo sapiens, UniProt O75531+P40337); assay: PROTAC activity at VHL/BAF in human MV4-11 cells assessed as induction of BAF degradation incubated for 18 hrs by Western blot analysis; format: cell-based
[2] = biological target: von Hippel-Lindau disease tumor suppressor/Barrier-to-autointegration factor (Homo sapiens) (UniProt P40337+O75531); assay: PROTAC activity at VHL/BAF in human MV4-11 cells assessed as induction of BAF degradation incubated for 18 hrs by Western blot analysis relative to control; format: cell-based
[3] = biological target: T1, Protein cereblon/Tyrosine-protein kinase BTK (Homo sapiens, UniProt Q06187+Q96SW2); assay: PROTAC activity at CRBN/BTK in human MINO cells assessed as reduction in BTK level incubated for 24 hrs by Western blot analysis relative to control; format: cell-based
Target sequence in this assay (Q06187 2-659 limits assumed): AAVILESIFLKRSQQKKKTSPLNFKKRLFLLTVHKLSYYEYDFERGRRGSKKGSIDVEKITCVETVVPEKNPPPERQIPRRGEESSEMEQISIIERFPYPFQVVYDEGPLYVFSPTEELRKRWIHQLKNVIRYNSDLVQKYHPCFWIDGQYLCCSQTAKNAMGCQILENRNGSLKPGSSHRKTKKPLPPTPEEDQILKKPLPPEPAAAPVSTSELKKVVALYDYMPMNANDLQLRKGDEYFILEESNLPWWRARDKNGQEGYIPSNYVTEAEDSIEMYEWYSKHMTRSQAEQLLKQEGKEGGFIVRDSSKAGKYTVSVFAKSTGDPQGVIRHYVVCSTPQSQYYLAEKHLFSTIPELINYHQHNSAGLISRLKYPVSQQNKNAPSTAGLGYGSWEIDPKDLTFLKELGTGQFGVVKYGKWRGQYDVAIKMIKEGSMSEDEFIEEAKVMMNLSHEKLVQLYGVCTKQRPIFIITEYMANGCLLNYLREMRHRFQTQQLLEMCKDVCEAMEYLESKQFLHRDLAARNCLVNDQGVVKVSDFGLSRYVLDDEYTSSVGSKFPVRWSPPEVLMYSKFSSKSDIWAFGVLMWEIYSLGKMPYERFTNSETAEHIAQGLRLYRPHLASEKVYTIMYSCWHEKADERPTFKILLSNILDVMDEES
Target sequence in this assay (Q96SW2 whole entry partner): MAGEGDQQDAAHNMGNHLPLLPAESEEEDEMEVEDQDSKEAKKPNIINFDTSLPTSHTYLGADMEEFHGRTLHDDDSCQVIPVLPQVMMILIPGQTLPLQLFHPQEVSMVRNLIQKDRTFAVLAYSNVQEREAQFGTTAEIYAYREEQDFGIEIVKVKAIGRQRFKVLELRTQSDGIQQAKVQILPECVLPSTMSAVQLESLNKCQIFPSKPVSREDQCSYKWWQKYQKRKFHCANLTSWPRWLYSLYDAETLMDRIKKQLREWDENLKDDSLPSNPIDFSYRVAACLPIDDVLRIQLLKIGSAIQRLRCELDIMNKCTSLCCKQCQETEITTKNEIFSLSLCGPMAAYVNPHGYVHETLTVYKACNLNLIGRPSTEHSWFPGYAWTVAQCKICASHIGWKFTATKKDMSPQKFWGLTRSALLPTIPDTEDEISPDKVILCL

[4] = biological target: T1, Protein cereblon/Tyrosine-protein kinase BTK; assay: PROTAC activity at CRBN/BTK in human MINO cells assessed as reduction in BTK level incubated for 24 hrs by Western blot analysis; format: cell-based
Target sequence in this assay (Q06187 whole entry): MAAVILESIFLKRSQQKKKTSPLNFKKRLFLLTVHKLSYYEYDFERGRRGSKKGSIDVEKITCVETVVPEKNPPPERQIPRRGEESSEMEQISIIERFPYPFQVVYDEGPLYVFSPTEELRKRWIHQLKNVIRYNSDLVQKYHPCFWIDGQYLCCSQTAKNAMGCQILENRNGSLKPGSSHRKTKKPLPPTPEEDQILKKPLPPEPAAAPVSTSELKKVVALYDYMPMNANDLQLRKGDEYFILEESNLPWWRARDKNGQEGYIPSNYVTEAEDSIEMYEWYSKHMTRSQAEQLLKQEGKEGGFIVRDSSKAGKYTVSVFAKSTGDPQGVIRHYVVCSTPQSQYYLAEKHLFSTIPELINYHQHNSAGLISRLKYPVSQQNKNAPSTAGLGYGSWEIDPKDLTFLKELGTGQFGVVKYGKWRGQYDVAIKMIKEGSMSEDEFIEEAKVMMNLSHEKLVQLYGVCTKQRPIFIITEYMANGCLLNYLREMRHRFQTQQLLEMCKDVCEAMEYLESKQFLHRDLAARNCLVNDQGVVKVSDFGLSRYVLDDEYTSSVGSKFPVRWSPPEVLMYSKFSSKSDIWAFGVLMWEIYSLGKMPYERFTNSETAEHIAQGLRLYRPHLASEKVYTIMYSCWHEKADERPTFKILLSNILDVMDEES
Target sequence in this assay (Q96SW2 whole entry): as the sequence (Q96SW2 whole entry partner) above

PC-3 = assay: Antiproliferative activity against human PC-3 cells assessed as inhibition of cell proliferation incubated for 48 hrs by CCK8 assay; format: functional, cell-based; settings: PC-3, 48 h
[5] = biological target: Protein cereblon/Adenosine receptor A1 (Homo sapiens) (UniProt P30542+Q96SW2); assay: PROTAC activity at CRBN/A1AR in human HEK293 cells assessed as induction of A1AR degradation at 10 micromol/L incubated for 12 hrs by Western blot analysis relative to control; format: cell-based; settings: dose 10.0 µmol/L
[6] = biological target: Alpha-1A adrenergic receptor (Homo sapiens, UniProt P35348); assay: PROTAC activity at CRBN/A1AR in human HEK293 cells assessed as induction of A1AR degradation incubated for 12 hrs by Western blot analysis; format: cell-based
[7] = biological target: T2, Protein cereblon/Retinal rod rhodopsin-sensitive cGMP 3',5'-cyclic phosphodiesterase subunit delta (Homo sapiens, UniProt O43924+Q96SW2); assay: PROTAC activity at CRBN/PDEdelta in human PancTu-I assessed as induction of PDEdelta degradation incubated for 24 hrs by immunoblot analysis; format: cell-based
[8] = biological target: T2, Protein cereblon/Retinal rod rhodopsin-sensitive cGMP 3',5'-cyclic phosphodiesterase subunit delta; assay: PROTAC activity at CRBN/PDEdelta in human PancTu-I assessed as induction of PDEdelta degradation incubated for 24 hrs by immunoblot analysis relative to control; format: cell-based
HeLa = assay: PROTAC activity at VHL/PRC2 in human HeLa cells assessed as induction of PRC2 degradation incubated for 24 hrs by Western blot analysis relative to control; format: cell-based
[9] = PROTAC activity at VHL/PRC2 in human HeLa cells assessed as induction of PRC2 degradation incubated for 24 hrs by Western blot analysis; format: cell-based
[10] = biological target: von Hippel-Lindau disease tumor suppressor/Focal adhesion kinase 1 (Homo sapiens) (UniProt Q05397+P40337); assay: PROTAC activity at VHL/FAK in human PC-3 cells assessed as induction of FAK degradation incubated for 24 hrs by immunoblot analysis relative to control; format: cell-based
[11] = biological target: von Hippel-Lindau disease tumor suppressor/Focal adhesion kinase 1 (Homo sapiens, UniProt P40337+Q05397); assay: PROTAC activity at VHL/FAK in human PC-3 cells assessed as induction of FAK degradation incubated for 24 hrs by immunoblot analysis; format: cell-based
[12] = biological target: T3, Protein cereblon/Tyrosine-protein kinase BTK (Homo sapiens, UniProt Q06187+Q96SW2, C481S); assay: PROTAC activity at CRBN/BTK C481S mutant transfected in human HeLa cells assessed as induction of BTK C481S degradation incubated for 4 days by immunoblot analysis; format: cell-based
T3 sequence (Q06187 2-659 C481S limits assumed, stated change not applied): as the sequence (Q06187 2-659 limits assumed) above, with C480S counted along it
T3 sequence (Q96SW2 whole entry, stated change not applied): as the sequence (Q96SW2 whole entry partner) above

Protein cereblon-NS3 = Protein cereblon-NS3 (Hepacivirus hominis, UniProt A3EZJ3+Q96SW2); assay: PROTAC activity at CRBN/NS3 of HCV assessed as induction of NS3-eGFP-2A-mCherry degradation incubated for 4 hrs by flow cytometry
Chain of Protein cereblon-NS3 (A3EZJ3 whole entry): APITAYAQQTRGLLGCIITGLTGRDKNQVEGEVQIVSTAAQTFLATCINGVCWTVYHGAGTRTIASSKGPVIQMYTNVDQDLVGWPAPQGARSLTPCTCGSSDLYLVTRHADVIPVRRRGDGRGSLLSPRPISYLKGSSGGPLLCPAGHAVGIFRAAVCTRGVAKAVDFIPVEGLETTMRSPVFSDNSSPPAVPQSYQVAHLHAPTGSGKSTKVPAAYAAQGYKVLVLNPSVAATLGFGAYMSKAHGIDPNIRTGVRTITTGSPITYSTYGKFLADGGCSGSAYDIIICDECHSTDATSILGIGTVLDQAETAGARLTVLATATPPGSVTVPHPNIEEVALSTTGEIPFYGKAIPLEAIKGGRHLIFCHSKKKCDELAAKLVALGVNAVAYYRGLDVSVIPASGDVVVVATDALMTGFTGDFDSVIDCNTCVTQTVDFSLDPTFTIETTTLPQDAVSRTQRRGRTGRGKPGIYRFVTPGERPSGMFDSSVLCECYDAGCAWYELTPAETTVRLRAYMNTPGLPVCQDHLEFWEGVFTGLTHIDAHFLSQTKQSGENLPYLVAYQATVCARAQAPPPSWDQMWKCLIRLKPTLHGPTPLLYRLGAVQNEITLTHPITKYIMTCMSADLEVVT
Chain of Protein cereblon-NS3 (Q96SW2 whole entry): as the sequence (Q96SW2 whole entry partner) above

[13] = biological target: T4, Protein cereblon/Indoleamine 2,3-dioxygenase 1 (Homo sapiens, UniProt P14902+Q96SW2); assay: PROTAC activity at CRBN/IDO1 in human HeLa cells assessed as induction of IDO1 degradation incubated for 24 hrs by immunoblot analysis; format: cell-based
[14] = biological target: T4, Protein cereblon/Indoleamine 2,3-dioxygenase 1; assay: PROTAC activity at CRBN/IDO1 in human HeLa cells assessed as induction of IDO1 degradation incubated for 24 hrs by immunoblot analysis relative to control; format: cell-based
[15] = biological target: T3, Protein cereblon/Tyrosine-protein kinase BTK; assay: PROTAC activity at CRBN/BTK C481S mutant transfected in human HBL1 cells assessed as induction of BTK C481S degradation incubated for 36 hrs by Western blot analysis; format: cell-based
[16] = biological target: von Hippel-Lindau disease tumor suppressor/Cyclin-dependent kinase 6 (Homo sapiens) (UniProt Q00534+P40337); assay: PROTAC activity at VHL/CDK6 in human MM1.S cells assessed as induction of CDK6 degradation at 0.1 to 1 uM incubated for 16 hrs by Western blot analysis relative to control; format: cell-based; settings: dose 0.1-1 µM
[17] = biological target: von Hippel-Lindau disease tumor suppressor/Cyclin-dependent kinase 6 (Homo sapiens, UniProt P40337+Q00534); assay: PROTAC activity at VHL/CDK6 in human MM1.S cells assessed as induction of CDK6 degradation incubated for 16 hrs by Western blot analysis; format: cell-based
[18] = biological target: von Hippel-Lindau disease tumor suppressor/Cyclin-dependent kinase 4 (Homo sapiens, UniProt P11802+P40337); assay: PROTAC activity at VHL/CDK4 in human MM1.S cells assessed as induction of […] degradation incubated for 16 hrs by Western blot analysis; format: cell-based
[19] = biological target: BRD4/E3 ubiquitin-protein ligase Mdm2 (Homo sapiens) (UniProt Q00987+O60885); assay: PROTAC activity at MDM2/BRD4 in human HCT-116 cells assessed as induction of BRD4 degradation incubated for 24 hrs by immunoblot analysis relative to control; format: cell-based
[20] = biological target: BRD4/E3 ubiquitin-protein ligase Mdm2 (Homo sapiens, UniProt O60885+Q00987); assay: PROTAC activity at MDM2/BRD4 in human HCT-116 cells assessed as induction of BRD4 degradation incubated for 24 hrs by immunoblot analysis; format: cell-based
[21] = biological target: T5, von Hippel-Lindau disease tumor suppressor/Tyrosine-protein kinase ABL1/Breakpoint cluster region protein (Homo sapiens, UniProt P00519+P11274+P40337); assay: PROTAC activity at VHL/BCR-Abl (unknown origin) assessed as induction of BCR-Abl degradation by cell based assay
[22] = biological target: T5, von Hippel-Lindau disease tumor suppressor/Tyrosine-protein kinase ABL1/Breakpoint cluster region protein; assay: PROTAC activity at VHL/BCR-Abl (unknown origin) assessed as induction of BCR-Abl degradation by cell based assay relative to control
[23] = biological target: T6, von Hippel-Lindau disease tumor suppressor/Mitogen-activated protein kinase 14 (Homo sapiens, UniProt P40337+Q16539); assay: PROTAC activity at VHL/p38alpha (unknown origin) assessed as dissociation constant by competitive binding assay
T6 sequence (Q16539 whole entry): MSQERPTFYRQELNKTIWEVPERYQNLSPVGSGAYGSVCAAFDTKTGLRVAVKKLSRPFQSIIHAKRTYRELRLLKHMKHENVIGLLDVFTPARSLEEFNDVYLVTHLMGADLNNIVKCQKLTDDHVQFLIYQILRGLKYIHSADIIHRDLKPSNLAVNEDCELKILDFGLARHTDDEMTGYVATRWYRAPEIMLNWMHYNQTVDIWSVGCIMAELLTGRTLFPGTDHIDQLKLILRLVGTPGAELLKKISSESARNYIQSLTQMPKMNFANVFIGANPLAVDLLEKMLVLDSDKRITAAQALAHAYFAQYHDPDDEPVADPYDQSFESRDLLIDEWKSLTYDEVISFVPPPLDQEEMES
T6 sequence (P40337 whole entry): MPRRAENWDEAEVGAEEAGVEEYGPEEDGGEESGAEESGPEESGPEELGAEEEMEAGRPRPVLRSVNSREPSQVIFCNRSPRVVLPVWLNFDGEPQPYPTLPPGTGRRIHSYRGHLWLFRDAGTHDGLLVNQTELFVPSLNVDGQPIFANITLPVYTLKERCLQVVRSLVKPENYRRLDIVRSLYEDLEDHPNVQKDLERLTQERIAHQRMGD

[24] = biological target: von Hippel-Lindau disease tumor suppressor/Mitogen-activated protein kinase 14 (Homo sapiens) (UniProt Q16539+P40337); assay: PROTAC activity at VHL/p38alpha in human MDA-MB-231 cells assessed as induction of p38alpha degradation incubated for 24 hrs by Western blot analysis relative to control; format: cell-based
[25] = biological target: T6, von Hippel-Lindau disease tumor suppressor/Mitogen-activated protein kinase 14; assay: PROTAC activity at VHL/p38alpha in human MDA-MB-231 cells assessed as induction of p38alpha degradation incubated for 24 hrs by Western blot analysis; format: cell-based
[26] = biological target: IAP-Tyrosine-protein kinase BTK (Homo sapiens, UniProt P98170+Q06187+Q13489+Q13490); assay: PROTAC activity at IAP/BTK in human THP-1 cells assessed as reduction in BTK level incubated for 16 hrs by immunoblot analysis; format: cell-based

Cc1ncsc1-c1ccc(CNC(=O)[C@@H]2C[C@@H](O)CN2C(=O)[C@@H](NC(=O)C2(F)CC2)C(C)(C)C)c(OCCOc2ccc(CN3CCN(c4cc(-c5ccccc5O)nnc4N)CC3)cc2)c1
pEC50 [1]: > 7.49
Emax [2]: > 65%

Nc1ncnc2c1c(-c1ccc(Oc3ccccc3)cc1)nn2[C@H]1CCCN(C(=O)CCCCCCOCCOCCOCCOCCOc2cccc3c2C(=O)N(C2CCC(=O)NC2=O)C3=O)C1 (stereo partly specified)
Emax [3]: 97%
pEC50 [4]: 8.66

COc1cc2nc(N3CCN(C(=O)c4cn(CCOCCOCCOCC(=O)Nc5cccc6c5C(=O)N(C5CCC(=O)NC5=O)C6=O)nn4)CC3)nc(N)c2cc1OC (stereo unspecified)
pIC50 (PC-3): 5.21
Emax [5]: 94%
pEC50 [6]: 5.54

COc1cc2nc(N3CCN(C(=O)c4ccco4)CC3)nc(N)c2cc1OC [PRAZOSIN]
pIC50 (PC-3): 4.93

O=C1CCC(N2C(=O)c3cccc(NCCOCCOCCOCCOCCNC(=O)c4ccc(CN(CC5CCNCC5)S(=O)(=O)c5ccc(S(=O)(=O)N(Cc6ccc(Cl)cc6)C6CCCC6)cc5)cc4)c3C2=O)C(=O)N1 (stereo unspecified)
pEC50 [7]: 7.32
Emax [8]: 85%

Cc1ncsc1-c1ccc(CNC(=O)[C@@H]2C[C@@H](O)CN2C(=O)[C@@H](NC(=O)CCCNC(=O)c2ccc(-c3cnc(NCc4ccco4)n4cnnc34)cc2)C(C)(C)C)cc1
Emax (HeLa): > 80%
pEC50 [9]: > 6.15

Cc1ncsc1-c1ccc(CNC(=O)[C@@H]2C[C@@H](O)CN2C(=O)[C@@H](NC(=O)CCOCCOc2ccc(Nc3ncc(C(F)(F)F)c(NCc4cccc(N(C)S(C)(=O)=O)c4)n3)cc2)C(C)(C)C)cc1
Emax [10]: 99%
pEC50 [11]: 8.52

Nc1ncnc2c1c(-c1ccc(Oc3ccccc3)cc1)nn2[C@@H]1CCCN(C(=O)c2cn(CCOCCOCCOCCNc3cccc4c3C(=O)N(C3CCC(=O)NC3=O)C4=O)nn2)C1 (stereo partly specified)
pEC50 [12]: 7.52

Nc1ncnc2c1c(-c1ccc(Oc3ccccc3)cc1)nn2[C@H]1CCCN(C(=O)/C=C/CCCCOCCOCCOCCOCCOc2cccc3c2C(=O)N(C2CCC(=O)NC2=O)C3=O)C1 (stereo partly specified)
Emax [3]: 90%
pEC50 [4]: 8.00

CCC[C@H](NC(=O)[C@@H]1[C@H]2CCC[C@H]2CN1C(=O)[C@@H](NC(=O)[C@@H](NC(=O)c1cnc(C(=O)NCCCCCCNc2cccc3c2CN(C2CCC(=O)NC2=O)C3=O)cn1)C1CCCCC1)C(C)(C)C)C(=O)C(=O)NC1CC1 (stereo partly specified)
pEC50 (Protein cereblon-NS3): 6.17

O=C1CCC(N2C(=O)c3cccc(NCCOCCOCCOCCOCCOCCOCCOCCNCCNc4nonc4/C(=N/O)Nc4ccc(F)c(Br)c4)c3C2=O)C(=O)N1 (stereo unspecified)
pEC50 [13]: 5.55
Emax [14]: 93%

Nc1ncnc2c1c(-c1ccc(Oc3ccccc3)cc1)nn2[C@@H]1CCCN(C(=O)c2cn(CCOCCOCCOCCCc3cccc4c3CN(C3CCC(=O)NC3=O)C4=O)nn2)C1 (stereo partly specified)
pEC50 [15]: 7.54

CCC[C@H](NC(=O)[C@@H]1[C@H]2CCC[C@H]2CN1C(=O)[C@@H](NC(=O)[C@@H](NC(=O)c1cnc(C(=O)NCCOCCOCCNc2cccc3c2C(=O)N(C2CCC(=O)NC2=O)C3=O)cn1)C1CCCCC1)C(C)(C)C)C(=O)C(=O)NC1CC1 (stereo partly specified)
pEC50 (Protein cereblon-NS3): 6.31

CC(=O)c1c(C)c2cnc(Nc3ccc(N4CCN(CCOCCOCCOc5cc(-c6scnc6C)ccc5CNC(=O)[C@H]5C[C@H](O)CN5C(=O)[C@@H](NC(=O)C5(F)CC5)C(C)(C)C)CC4)cn3)nc2n(C2CCCC2)c1=O
Emax [16]: > 95%
pEC50 [17]: 8.29
pEC50 [18]: 7.70

COc1cc(C(=O)NCCOCCOCCOCCNC(=O)C[C@@H]2N=C(c3ccc(Cl)cc3)c3c(sc(C)c3C)-n3c(C)nnc32)ccc1NC(=O)[C@@H]1N[C@@H](CC(C)(C)C)[C@](C#N)(c2ccc(Cl)cc2F)[C@H]1c1cccc(Cl)c1F
Emax [19]: 98%
pEC50 [20]: 7.49

Cc1ncsc1-c1ccc(CNC(=O)[C@@H]2C[C@@H](O)CN2C(=O)[C@@H](NC(=O)COCCOc2ccc(-c3cc(Nc4ccc(OC(F)(F)F)cc4)ncn3)cc2)C(C)(C)C)cc1
pEC50 [21]: 6.47
Emax [22]: > 95%

COc1cc2c(Oc3ccc(NC(=O)C4(C(=O)Nc5ccc(F)cc5)CC4)cc3F)cccc2cc1OCCCOCCCOCCC(=O)N[C@H](C(=O)N1C[C@H](O)C[C@H]1C(=O)NCc1ccc(-c2scnc2C)cc1)C(C)(C)C
pKd [23]: 4.96
Emax [24]: 91%
pEC50 [25]: 6.68

CN[C@@H](C)C(=O)N[C@H](C(=O)N1C[C@@H](NC(=O)COCCOCCOCCOCCN2CCN(CCCC(=O)N3CCC[C@@H](n4nc(-c5ccc(Oc6ccccc6)cc5)c5c(N)ncnc54)C3)CC2)C[C@H]1C(=O)N[C@@H]1CCCc2ccccc21)C1CCCCC1
pEC50 [26]: 6.70

CCC[C@H](NC(=O)[C@@H]1[C@H]2CCC[C@H]2CN1C(=O)[C@@H](NC(=O)[C@@H](NC(=O)c1cnc(C(=O)NCCOCCOCCOc2cc3c4c(cccc4c2)C(=O)N(C2CCC(=O)NC2=O)C3=O)cn1)C1CCCCC1)C(C)(C)C)C(=O)C(=O)NC1CC1 (stereo partly specified)
pEC50 (Protein cereblon-NS3): 7.30

CC(C)(/C=C(\C#N)C(=O)N1CCC[C@H](n2nc(-c3ccc(Oc4ccccc4)cc3)c3c(N)ncnc32)C1)CCCOCCOCCOCCOCCOc1cccc2c1C(=O)N(C1CCC(=O)NC1=O)C2=O (stereo partly specified)
Emax [3]: 90%
pEC50 [4]: 8.00
